Test results as given in patent publication US9359451B2, “Methods and compositions for treating trauma-hemorrhage using estrogen and derivatives thereof” (THE UAB RESEARCH FOUNDATION, priority 2012, dated 2016).
“Also recorded” adds a separate entry of the source.

How the values were obtained:
Assay type in all cases: in vivo, mouse
myeloperoxidase (MPO) = assay: Spinal cord injury: neutrophil infiltration, MPO activity and MPO staining; details: 24 h after SCI; ICI 182,780: co-administered with 17β-estradiol
Experimental: Mice were anaesthetized using chloral hydrate (400 mg/kg body weight) (Genovese 2006). A longitudinal incision was made on the midline of the back, exposing the paravertebral muscles. These muscles were dissected away exposing T5-T8 vertebrae. The spinal cord was exposed via a four-level T6-T7 laminectomy and SCI was produced by extradural compression using an aneurysm clip with a closing force of 24 g. Following surgery, 1 ml of saline was administered subcutaneously in order to replace the blood volume lost during surgery. During the surgery and recovery from anesthesia, the mice were placed on a warm heating pad and covered with a warm towel. […] Food and water were provided to the mice ad libitum. During this time period, the animals' bladders were manually voided twice a day until the mice were able to regain normal bladder function. In all injured groups, the spinal cord was compressed for 1 min. Sham-injured animals were only subjected to laminectomy. […] In the experiments regarding the motor score, the animals from all the experimental groups were observed and treated daily for 9 days after SCI. At different time points (see FIG. 30), the mice (n=10 from each group for each of the 3 time points) were sacrificed in order to evaluate the various parameters as described below. […] After deparaffinization, endogenous peroxidase was quenched with 0.3% (v/v) hydrogen peroxide in 60% (v/v) methanol for 30 min. […] Non-specific adsorption was minimized by incubating the section in 2% (v/v) normal goat serum in PBS for 20 min. Endogenous biotin or avidin binding sites were blocked by sequential incubation for 15 min with biotin and avidin (DBA), respectively. […] Sections were washed with PBS, and incubated with secondary antibody. Specific labeling was detected with a biotin-conjugated goat anti-rabbit IgG and avidin-biotin peroxidase complex (DBA) and counterstained with nuclear fast red. To verify the binding specificity for nitrotyrosine, iNOS, COX-2, Bax, and Bcl-2, some sections were also incubated with only the primary antibody (no secondary) or with only the secondary antibody (no primary). […] Immunocytochemistry photographs (n=5) were assessed by densitometry as previously described (Shea 1994) by using Imaging Densitometer (AxioVision, Zeiss, Milan, Italy) and a computer program. Myeloperoxidase (MPO) activity, an indicator of PMN accumulation, was determined as previously described (Mullane 1985) 24 h after SCI. […] The rate of change in absorbance was measured spectrophotometrically at 650 nm. MPO activity was defined as the quantity of enzyme degrading 1 μmol of peroxide per minute at 37° C. and was expressed in milliunits/g of wet tissue.

Bax and Bcl-2 = assay: Spinal cord injury: Western blot analysis for Bax and Bcl-2; details: 24 h after SCI; ICI 182,780: co-administered with 17β-estradiol
Experimental: Mice were anaesthetized using chloral hydrate (400 mg/kg body weight) (Genovese 2006). A longitudinal incision was made on the midline of the back, exposing the paravertebral muscles. These muscles were dissected away exposing T5-T8 vertebrae. The spinal cord was exposed via a four-level T6-T7 laminectomy and SCI was produced by extradural compression using an aneurysm clip with a closing force of 24 g. Following surgery, 1 ml of saline was administered subcutaneously in order to replace the blood volume lost during surgery. During the surgery and recovery from anesthesia, the mice were placed on a warm heating pad and covered with a warm towel. […] Food and water were provided to the mice ad libitum. During this time period, the animals' bladders were manually voided twice a day until the mice were able to regain normal bladder function. In all injured groups, the spinal cord was compressed for 1 min. Sham-injured animals were only subjected to laminectomy. […] In the experiments regarding the motor score, the animals from all the experimental groups were observed and treated daily for 9 days after SCI. At different time points (see FIG. 30), the mice (n=10 from each group for each of the 3 time points) were sacrificed in order to evaluate the various parameters as described below. […] After 1 hour, tissue lysates were obtained by centrifugation at 100,000×g for 15 min at 4° C. Protein concentrations were estimated by the Bio-Rad protein assay (Bio-Rad Laboratories, Segrate, Milan, Italy) using BSA as standard. […] The blot was performed by transferring proteins from a slab gel to nitrocellulose membrane at 240 mA for 40 min at room temperature. […] The AffiniPure Goat Anti-Rabbit IgG coupled to peroxidase secondary antibody (1:2000; Jackson Immuno Research, Laboratories, Inc., CA, USA) was incubated for 1 hour at room temperature. Subsequently, the blot was extensively washed with PBS, developed using SuperSignal West Pico chemiluminescence Substrate (PIERCE, Milan, Italy), according to the manufacturer's instructions, and exposed to Kodak X-Omat film (Eastman Kodak Co., Rochester, N.Y.). α-Tubulin protein (Sigma; 1:1000) Western blot was performed to ensure equal sample loading. The protein bands of Bax (23˜kDa), or Bcl-2 (26˜kDa) on x-ray film were scanned and densitometrically analyzed with a model GS-700 imaging densitometer (Bio-Rad Laboratories). To ascertain that blots were loaded with equal amounts of protein lysates, they were also incubated in the presence of the antibody against α-tubulin protein (1:10,000 Sigma-Aldrich Corp.). The densitometric data for Western are normalized for loading control values.

hind limb motor function = assay: Spinal cord injury: grading of motor disturbance (modified BBB scale); details: every day for 10 days after SCI; pre or post treatment with 17β-estradiol; ICI 182,780: co-administered with 17β-estradiol
Experimental: Mice were anaesthetized using chloral hydrate (400 mg/kg body weight) (Genovese 2006). A longitudinal incision was made on the midline of the back, exposing the paravertebral muscles. These muscles were dissected away exposing T5-T8 vertebrae. The spinal cord was exposed via a four-level T6-T7 laminectomy and SCI was produced by extradural compression using an aneurysm clip with a closing force of 24 g. Following surgery, 1 ml of saline was administered subcutaneously in order to replace the blood volume lost during surgery. During the surgery and recovery from anesthesia, the mice were placed on a warm heating pad and covered with a warm towel. […] Food and water were provided to the mice ad libitum. During this time period, the animals' bladders were manually voided twice a day until the mice were able to regain normal bladder function. In all injured groups, the spinal cord was compressed for 1 min. Sham-injured animals were only subjected to laminectomy. […] In the experiments regarding the motor score, the animals from all the experimental groups were observed and treated daily for 9 days after SCI. At different time points (see FIG. 30), the mice (n=10 from each group for each of the 3 time points) were sacrificed in order to evaluate the various parameters as described below. […] The motor function of mice subjected to compression trauma was assessed once a day for 10 days after injury. […]

SMILES | MPO activity in spinal cord (myeloperoxidase (MPO)) | staining for MPO (myeloperoxidase (MPO)) | Bax levels (Western blot) (Bax and Bcl-2) | Bcl-2 expression (Western blot) (Bax and Bcl-2) | hind limb motor disturbance (BBB score) (hind limb motor function)
C[C@]12CC[C@@H]3c4ccc(O)cc4C[C@@H](CCCCCCCCC[S+]([O-])CCCC(F)(F)C(F)(F)F)[C@H]3[C@@H]1CC[C@@H]2O (stereo partly shown) [ICI 182,780] | significantly blocked the effect of the 17β-estradiol | significantly blocked the effect of the 17β-estradiol | significantly blocked the effect of the 17β-estradiol; also recorded: Bax band is more evident in comparison with the band present in the tissue from 17β-estradiol-treated mice | significantly blocked the effect of the 17β-estradiol; also recorded: BCL2 band is less evident | significantly blocked the effect of the 17β-estradiol
C[C@]12CC[C@@H]3c4ccc(O)cc4CC[C@H]3[C@@H]1CC[C@@H]2O [17β-estradiol] | significantly attenuated; also recorded: significantly reduced the SCI-induced increase in MPO activity | visibly and significantly reduced | prevented the SCI-induced Bax expression; also recorded: Bax band disappeared | significantly reduced the SCI-induced inhibition of Bcl-2 expression; also recorded: Bcl-2 band is more evident | significant amelioration of hind limb motor disturbances; also recorded: reduces the motor disturbance after SCI
